From patent US5252482A, “Precursor of a C-terminal amidated calcitonin” (Suntory Limited, priority 1982, dated 1993) come the findings set out here.

Bridge positions count the residues as written; N and C are the ends. Peptide text beside a SMILES is read from it.

The test system of this assay is Male Wistar strain rats. The assay is described as follows: serum calcium lowering effect in rats. The assay is classed as in vivo, rat. Conditions: for Change in serum Ca level: 4.5 μg/rat subcutaneously, mean of 4 rats. The protocol:
The biological activities of HPCT and HPCT Cp(1-3S purified by the above-mentioned procedure were assayed using the serum calcium lowering effect in rats as an indicator.
Male Wistar strain rats weighing 300 to 350 grams were fasted overnight and used. Each animal was secured in supine position and under ether anesthesia, a polyethylene tube (Intramedic® PE-50, Clay Adams) filled with heparin sodium injection J. P. (Japan-Upjohn) was inserted into the femoral artery of the right hind leg. The rat was fixed in a Boleman cage, and 30 minutes after awakening of the animal, 0.5 ml of the blood was withdrawn through the above polyethylene tube inserted into the femoral artery into a polyethylene centrifugal tube containing 50 units of heparin sodium. Immediately thereafter 0.2 ml of the under-mentioned physiological saline, HPCT. HPCT.Cp(1-33) or swine calcitonin solution was administered subcutaneously at the back of the animal. Then, 1, 2, 4 and 6 hours after the administration, 0.5 ml each of the blood was taken through the above-mentioned polyethylene tube. The blood thus taken was promptly centrifuged on an Eppendorf microcentrifuge (Eppendorf 5414) at 13,000 r.p.m. for 1 minute and the supernatant was used as serum fraction.
The blood calcium level was measured by the o-cresolphthalein complexon method using a commercial calcium assay kit RM117-K (Ca SET) (Yatron). Fifty μl of the serum was taken in a test tube and stirred with 0.5 ml of the color reagent containing o-cresolphthalein complexon and 8-hydroxyquinoline (RM117-2). Then, 5.0 ml of monoethanolamine borate buffer (RM117-1) was added and stirred. Within 90 minutes thereafter, the absorbance was measured with a self-recording spectrophotometer (Hitachi 320) at the wavelength of 575 mu. The concentration of calcium was calculated from this absorbance value.
The methods used in the preparation of the physiological saline solution, HPCT solution, HPCT. Cp(1-3S) solution and swine calcitonin solution employed are as follows.
a) Physiological saline solution: Bovine serum albumin (Sigma®) was dissolved in physiological saline J. P. (Ohtsuka Pharmaceutical Co.) at room temperature to the albumin concentration of 0.1%.
b) HPCT solution: HPCT was diluted with the above-mentioned physiological saline solution containing 0.1% of albumin to the HPCT concentration of 4.5 μg/0.2 ml.
c) HPCT Cp(1-33) solution: HPCT Cp(1-33) was diluted with the above-mentioned physiological saline solution containing 0.1% of albumine to the HPCT Cp(1-33) concentration of 20 μg/0.2 ml.
d) Swine calcitonin solution: Calcital® for Injection (Yamanouchi Pharmaceutical Co.) containing 160 I.U. of calcitonin per vial was dissolved in 40 ml of a vehicle containing 16% of purified gelatin and 0.5% phenol J. P. and the solution was diluted with the above-mentioned physiological saline solution containing 0.1% of albumin. This dilution contained 0.2 or 1 I.U. of swine calcitonin per 0.2 ml.

Consider `CC[C@H](C)[C@H](NC(=O)[C@H](C)NC(=O)[C@@H](NC(=O)[C@H](CCC(N)=O)NC(=O)[C@@H]1CCCN1C(=O)[C@H](Cc1ccccc1)NC(=O)[C@@H](NC(=O)[C@H](Cc1c[nH]cn1)NC(=O)[C@H](Cc1ccccc1)NC(=O)[C@H](CCCCN)NC(=O)[C@H](CC(N)=O)NC(=O)[C@H](Cc1ccccc1)NC(=O)[C@H](CC(=O)O)NC(=O)[C@H](CCC(N)=O)NC(=O)[C@@H](NC(=O)[C@H](Cc1ccc(O)cc1)NC(=O)[C@@H](NC(=O)CNC(=O)[C@H](CC(C)C)NC(=O)[C@@H](NC(=O)[C@@H]1CSSC[C@H](N)C(=O)NCC(=O)N[C@@H](CC(N)=O)C(=O)N[C@@H](CC(C)C)C(=O)N[C@@H](CO)C(=O)N[C@@H]([C@@H](C)O)C(=O)N1)C(C)C)[C@@H](C)O)[C@@H](C)O)[C@@H](C)O)[C@@H](C)O)C(=O)NCC(=O)N[C@H](C(=O)NCC(=O)N[C@@H](C)C(=O)N1CCC[C@H]1C(=O)NCC(=O)N[C@@H](CCCCN)C(=O)N[C@@H](CCCCN)C(=O)N[C@@H](CCCNC(=N)N)C(=O)O)C(C)C` [HPCT] (H-CGNLSTCVLGTYTQDFNKFHTFPQTAIGVGAPGKKR-OH; disulfide 1-7), for which, where the note is “4.5 μg of HPCT, rat, subcutaneous, serum calcium time course”, the “activity equivalent in swine calcitonin” value is 0.2 I.U. Moreover, the calcitonin activity result (calcium level in the rat blood) is listed as “markedly reducing the calcium level in the rat blood”. For the same compound, the “physiological activity compared with swine calcitonin” value (rat serum calcium, Table 2, not compared in an equal amount) was “stronger physiological activity as compared with swine calcitonin”. Also, for the setting “rat, 4.5 μg subcutaneously, 1 and 2 hours after the administration”, the serum calcium level entry was “dropped with statistical significance”. Moreover, the “Change in serum Ca level” value was -0.85 mg/dL (rat, 1 hour after administration); -0.64 mg/dL (rat, 2 hours); -0.47 mg/dL (rat, 3 hours); -0.63 mg/dL (rat, 4 hours).
